ChEMBL document CHEMBL1130755, “Synthesis of a new class of camptothecin derivatives, the long-chain fatty acid esters of 10-hydroxycamptothecin, as a potent prodrug candidate, and their in vitro metabolic conversion by carboxylesterases” (Bioorg Med Chem Lett, 1998)

Legend:
Liver carboxylesterase 1 = biological target: T1, Liver carboxylesterase 1 (Homo sapiens, UniProt P23141); assay: Specific activity (hydrolysis) by purified carboxylesterase isozyme HU1 against microsomes in human liver
T1 sequence (P23141 whole entry): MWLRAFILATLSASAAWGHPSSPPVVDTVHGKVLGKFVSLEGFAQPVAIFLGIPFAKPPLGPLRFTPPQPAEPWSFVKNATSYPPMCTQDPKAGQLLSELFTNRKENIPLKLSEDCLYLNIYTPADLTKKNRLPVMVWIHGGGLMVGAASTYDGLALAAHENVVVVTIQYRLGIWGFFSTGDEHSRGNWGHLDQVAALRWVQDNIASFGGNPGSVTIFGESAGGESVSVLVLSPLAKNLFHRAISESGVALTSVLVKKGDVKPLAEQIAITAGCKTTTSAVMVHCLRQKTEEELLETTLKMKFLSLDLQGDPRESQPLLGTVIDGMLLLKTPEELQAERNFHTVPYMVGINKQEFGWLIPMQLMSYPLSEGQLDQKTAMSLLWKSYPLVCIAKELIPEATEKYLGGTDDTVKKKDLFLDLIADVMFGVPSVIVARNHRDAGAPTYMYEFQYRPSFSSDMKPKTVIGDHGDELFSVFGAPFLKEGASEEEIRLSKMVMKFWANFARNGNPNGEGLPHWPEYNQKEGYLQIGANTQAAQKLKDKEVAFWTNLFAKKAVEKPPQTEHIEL

Carboxylesterase 1E = biological target: T2, Carboxylesterase 1E (Rattus norvegicus, UniProt Q63108); assay: Specific activity (hydrolysis) by purified carboxylesterase isozyme RH1 against microsomes in rat liver
T2 sequence (Q63108 whole entry): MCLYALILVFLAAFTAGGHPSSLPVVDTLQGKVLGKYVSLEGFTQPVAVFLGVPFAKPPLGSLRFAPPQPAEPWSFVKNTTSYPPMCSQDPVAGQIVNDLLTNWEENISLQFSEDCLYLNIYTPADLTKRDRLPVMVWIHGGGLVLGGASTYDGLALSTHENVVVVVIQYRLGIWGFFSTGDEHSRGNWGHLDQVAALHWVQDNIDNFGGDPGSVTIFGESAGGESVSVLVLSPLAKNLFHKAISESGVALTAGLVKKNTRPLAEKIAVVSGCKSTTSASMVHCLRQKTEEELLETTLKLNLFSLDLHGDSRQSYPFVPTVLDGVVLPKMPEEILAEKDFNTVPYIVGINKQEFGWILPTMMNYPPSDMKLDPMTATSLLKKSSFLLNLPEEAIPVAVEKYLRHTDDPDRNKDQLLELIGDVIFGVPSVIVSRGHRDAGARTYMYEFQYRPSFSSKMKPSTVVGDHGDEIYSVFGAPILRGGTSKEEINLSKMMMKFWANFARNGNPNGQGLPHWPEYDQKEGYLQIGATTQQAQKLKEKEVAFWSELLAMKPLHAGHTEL

[1] = tested on: Liver carboxylesterase 1 (Sus scrofa); assay: Specific activity (hydrolysis) by purified carboxylesterase isozyme P1 against microsomes in pig liver

Compound	Activity (Liver carboxylesterase 1)	Activity (Carboxylesterase 1E)	Activity [1]
CCCCCCCCCCCC(=O)Oc1ccc2nc3c(cc2c1)Cn1c-3cc2c(c1=O)COC(=O)[C@]2(O)CC	15.3 nmol/min/mg	19.1 nmol/min/mg	42.1 nM/mg/min
CCCCCCCCCCCCCCCC(=O)Oc1ccc2nc3c(cc2c1)Cn1c-3cc2c(c1=O)COC(=O)[C@]2(O)CC	1.58 nmol/min/mg	2.33 nmol/min/mg	9.13 nM/mg/min
CCCCCCCCCC(=O)Oc1ccc2nc3c(cc2c1)Cn1c-3cc2c(c1=O)COC(=O)[C@]2(O)CC	27.9 nmol/min/mg	17.4 nmol/min/mg	37.4 nM/mg/min
CCc1c2c(nc3ccc(OC(=O)N4CCC(N5CCCCC5)CC4)cc13)-c1cc3c(c(=O)n1C2)COC(=O)[C@]3(O)CC [IRINOTECAN]	–	0.259 nmol/min/mg	–
CCCCCCCCCCCCCCCCCC(=O)Oc1ccc2nc3c(cc2c1)Cn1c-3cc2c(c1=O)COC(=O)[C@]2(O)CC	1.27 nmol/min/mg	0.698 nmol/min/mg	3.02 nM/mg/min
CCCCCCCCCCCCCCCCCCCC(=O)Oc1ccc2nc3c(cc2c1)Cn1c-3cc2c(c1=O)COC(=O)[C@]2(O)CC	1.07 nmol/min/mg	0.183 nmol/min/mg	0.854 nM/mg/min
